This note sets out measurements from US8536202B2, “Triazole-substituted anthranilamides as pesticides” (Bayer Cropscience AG, priority 2010, dated 2013).

In data set [1] the test system is caterpillars of the armyworm (Spodoptera frugiperda). Briefly: Spodoptera frugiperda test (SPODFR spray treatment). In kind it is in vivo. As to conditions: 168 h, read-out: activity in %. How it is done: Solvents: 78.0 parts by weight of acetone • • 1.5 parts by weight of dimethylformamide
Emulsifier: 0.5 part by weight of alkylaryl polyglycol ether
An appropriate preparation of active compound is prepared by mixing 1 part by weight of active compound with the stated amounts of solvent and emulsifier and diluting the concentrate with emulsifier-containing water to the desired concentration.
Leaf discs of maize (Zea mays) are sprayed with a preparation of active compound at the desired concentration and, after drying, are populated with caterpillars of the armyworm (Spodoptera frugiperda).
After 7 days, the activity in % is ascertained. Here, 100% means that all of the caterpillars have been killed; 0% means that no caterpillar has been killed.

The nature of data set [2]: log P determination by HPLC on reversed-phase columns (EEC Directive 79/831 Annex V.A8). As to conditions: pH 2.7. In kind it is physicochemical. As to the method: Determination by LC-MS in the acidic range takes place at a pH of 2.7 using 0.1% aqueous formic acid and acetonitrile (containing 0.1% formic acid) as eluents, with a linear gradient from 10% acetonitrile to 95% acetonitrile.
Calibration was carried out using unbranched alkan-2-ones (having 3 to 16 carbon atoms) with known log P values (the log P values are determined from the retention times by linear interpolation between two successive alkanones).

Where [3] appears, read: reversed-phase C18 HPLC column, HPLC on reversed-phase columns (C 18), EEC Directive 79/831 Annex V.A8, read-out: logP.
Setting [4] is: HPLC on reversed-phase columns (C 18), EEC Directive 79/831 Annex V.A8, read-out: logP.

The structures appear in SMILES notation. Read-outs that look alike come from different tables or passages of the source.

As to `Cc1cc(C#N)cc(C(=O)NC(C)(C)C)c1NC(=O)c1cc(Cn2ncc(C(F)(F)F)n2)nn1-c1ncccc1Br` [Example 10], the pest or weed control at 100 g/ha in data set [1] (100 g/ha, after 7 days) was 100%. Moreover, the chromatographic logP in data set [2] (setting [3]) was determined as 3.04.

In data set [2], `CNC(=O)c1cc(Cl)cc(C)c1NC(=O)c1cc(Cn2cc(C3CC3)nn2)nn1-c1ncccc1Cl` [Example 13] gave a chromatographic logP of 2.14. On to `CNC(=O)c1cc(Cl)cc(C)c1NC(=O)c1cc(Cn2cc(C(C)(C)C)nn2)nn1-c1ncccc1Cl` [Example 15], for which the chromatographic logP in data set [2] amounted to 2.53. Regarding `CNC(=O)c1cc(Cl)cc(C)c1NC(=O)c1cc(Cn2ncc(C(C)C)n2)nn1-c1ncccc1Cl` [Example 22], in data set [1] (100 g/ha, after 7 days), the pest or weed control at 100 g/ha amounted to 100%. The same molecule gave a chromatographic logP in data set [2] of 2.85. In the case of `CNC(=O)c1cc(Cl)cc(C)c1NC(=O)c1cc(Cn2ncc(C(C)(C)C)n2)nn1-c1ncccc1Cl` [Example 23], the pest or weed control at 100 g/ha in data set [1] (100 g/ha, after 7 days) was determined as 83%. In addition, in data set [2], the chromatographic logP came out at 3.2. For `CNC(=O)c1cc(C#N)cc(C)c1NC(=O)c1cc(Cn2cc(-c3ccc(F)cc3)nn2)nn1-c1ncccc1Cl` [Example 32], in that order: 100% and 2.41. Taken in the same sequence, the figures for `CNC(=O)c1cc(C#N)cc(C)c1NC(=O)c1cc(Cn2cc(-c3ccccc3Cl)nn2)nn1-c1ncccc1Cl` [Example 35] were 100% and 2.63. In turn, `Cc1cc(Cl)cc(C(=O)NC(C)(C)C)c1NC(=O)c1cc(Cn2ncc(C(C)C)n2)nn1-c1ncccc1Cl` [Example 47] registered a chromatographic logP in data set [2] of 3.86. Take `Cc1cc(Cl)cc(C(=O)NC(C)(C)C)c1NC(=O)c1cc(Cn2ncc(C(C)(C)C)n2)nn1-c1ncccc1Cl` [Example 48]: in data set [2], the chromatographic logP is 4.25. Take `Cc1cc(Cl)cc(C(=O)NC(C)(C)C)c1NC(=O)c1cc(Cn2ncc(-c3ccc(Cl)cc3)n2)nn1-c1ncccc1Cl` [Example 49]: the chromatographic logP in data set [2] is 4.58. In the case of `Cc1cc(C#N)cc(C(=O)NC(C)(C)C)c1NC(=O)c1cc(Cn2cc(C(C)C)nn2)nn1-c1ncccc1Cl` [Example 51], the chromatographic logP in data set [2] worked out at 2.74. With `Cc1cc(C#N)cc(C(=O)NC(C)(C)C)c1NC(=O)c1cc(Cn2cc(C(C)(C)C)nn2)nn1-c1ncccc1Cl` [Example 52], the chromatographic logP in data set [2] was 3.02. As for `Cc1cc(C#N)cc(C(=O)NC(C)(C)C)c1NC(=O)c1cc(Cn2cc(-c3ccccc3Cl)nn2)nn1-c1ncccc1Cl` [Example 56], in data set [1] (100 g/ha, after 7 days), the pest or weed control at 100 g/ha was 83%. In data set [2], this molecule showed a chromatographic logP of 3.45.

For the molecule `Cc1cc(C#N)cc(C(=O)NC(C)(C)C)c1NC(=O)c1cc(Cn2ncc(C3CC3)n2)nn1-c1ncccc1Cl` [Example 58], the pest or weed control at 100 g/ha in data set [1] (100 g/ha, after 7 days) was 100%. The molecule further had a chromatographic logP in data set [2] of 3.12. With `Cc1cc(C#N)cc(C(=O)NC(C)(C)C)c1NC(=O)c1cc(Cn2ncc(C(C)C)n2)nn1-c1ncccc1Cl` [Example 59], the chromatographic logP in data set [2] turned out to be 3.38.

Regarding `Cc1cc(C#N)cc(C(=O)NC(C)(C)C)c1NC(=O)c1cc(Cn2ncc(C(C)(C)C)n2)nn1-c1ncccc1Cl` [Example 60], in data set [2], the chromatographic logP is 3.74.

For `CNC(=O)c1cc(Cl)cc(C)c1NC(=O)c1cc(Cn2nnc3ccccc32)nn1-c1ncccc1Cl` [Example 66], in data set [1] (100 g/ha, after 7 days), the pest or weed control at 100 g/ha was 100%. Further, the chromatographic logP in data set [2] amounted to 2.38. For `CNC(=O)c1cc(Cl)cc(C)c1NC(=O)c1cc(Cn2nc3ccccc3n2)nn1-c1ncccc1Cl` [Example 67], in that order: 100% and 2.75. Consider `CNC(=O)c1cc(Cl)cc(C)c1NC(=O)c1cc(Cn2nnc3cc(Cl)ccc32)nn1-c1ncccc1Cl` [Example 68], for which the pest or weed control at 100 g/ha in data set [1] (100 g/ha, after 7 days) amounted to 100%. Further, the chromatographic logP in data set [2] was 2.9.

In the case of `CNC(=O)c1cc(Cl)cc(C)c1NC(=O)c1cc(Cn2nnc3cc(C)ccc32)nn1-c1ncccc1Cl` [Example 69], the pest or weed control at 100 g/ha in data set [1] (100 g/ha, after 7 days) worked out at 100%. This molecule returned a chromatographic logP in data set [2] of 2.63.

Regarding `CNC(=O)c1cc(Cl)cc(C)c1NC(=O)c1cc(Cn2nc3ccc(C)cc3n2)nn1-c1ncccc1Cl` [Example 73], in data set [2], the chromatographic logP turned out to be 3.05. In data set [2], `CNC(=O)c1cc(Cl)cc(C)c1NC(=O)c1cc(Cn2nnc3cc(Cl)c(Cl)cc32)nn1-c1ncccc1Cl` [Example 76] registered a chromatographic logP of 3.33. With `CNC(=O)c1cc(Cl)cc(C)c1NC(=O)c1cc(Cn2nnc3ccc(F)cc32)nn1-c1ncccc1Cl` [Example 78], the pest or weed control at 100 g/ha in data set [1] (100 g/ha, after 7 days) turned out to be 100%. This molecule returned a chromatographic logP in data set [2] of 2.57.

As for `CNC(=O)c1cc(C#N)cc(C)c1NC(=O)c1cc(Cn2nnc3cc(Cl)c(Cl)cc32)nn1-c1ncccc1Cl` [Example 80], the pest or weed control at 100 g/ha in data set [1] (100 g/ha, after 7 days) turned out to be 100%. For the same molecule, in data set [2], the chromatographic logP came to 2.96.

Take `CNC(=O)c1cc(C#N)cc(C)c1NC(=O)c1cc(Cn2nnc3ccc(F)cc32)nn1-c1ncccc1Cl` [Example 82]: the pest or weed control at 100 g/ha in data set [1] (100 g/ha, after 7 days) was found to be 100%. Further, the chromatographic logP in data set [2] worked out at 2.24. For the molecule `CNC(=O)c1cc(C#N)cc(C)c1NC(=O)c1cc(Cn2nc3ccc(F)cc3n2)nn1-c1ncccc1Cl` [Example 83], in data set [1] (100 g/ha, after 7 days), the pest or weed control at 100 g/ha is 100%. The molecule also showed a chromatographic logP in data set [2] of 2.55. Regarding `CNC(=O)c1cc(Cl)cc(C)c1NC(=O)c1cc(Cn2nnc3c(Cl)c(Cl)c(Cl)c(Cl)c32)nn1-c1ncccc1Cl` [Example 84], the pest or weed control at 100 g/ha in data set [1] (100 g/ha, after 7 days) was found to be 100%. In data set [2], this molecule came in with a chromatographic logP of 4.19. In the case of `CNC(=O)c1cc(Cl)cc(C)c1NC(=O)c1cc(Cn2nc3c(Cl)c(Cl)c(Cl)c(Cl)c3n2)nn1-c1ncccc1Cl` [Example 85], the chromatographic logP in data set [2] was 4.66. In data set [2], `CNC(=O)c1cc(C#N)cc(C)c1NC(=O)c1cc(Cn2nc3c(Cl)c(Cl)c(Cl)c(Cl)c3n2)nn1-c1ncccc1Cl` [Example 93] showed a chromatographic logP of 4.24. On to `CNC(=O)c1cc(C#N)cc(C)c1NC(=O)c1cc(Cn2nnc3cc([N+](=O)[O-])ccc32)nn1-c1ncccc1Cl` [Example 103], for which the pest or weed control at 100 g/ha in data set [1] (100 g/ha, after 7 days) came out at 100%. The molecule also came in with a chromatographic logP in data set [2] of 2.34. Regarding `Cc1cc(C#N)cc(C(=O)NC(C)(C)C)c1NC(=O)c1cc(Cn2nnc3c(Cl)c(Cl)c(Cl)c(Cl)c32)nn1-c1ncccc1Cl` [Example 104], the chromatographic logP in data set [2] was 4.64. For `Cc1cc(C#N)cc(C(=O)NC(C)(C)C)c1NC(=O)c1cc(Cn2nc3c(Cl)c(Cl)c(Cl)c(Cl)c3n2)nn1-c1ncccc1Cl` [Example 105], the chromatographic logP in data set [2] is 5.13. `Cc1cc(C#N)cc(C(=O)NC(C)(C)C)c1NC(=O)c1cc(Cn2nnc3cc(Br)ccc32)nn1-c1ncccc1Cl` [Example 106]: the pest or weed control at 100 g/ha in data set [1] (100 g/ha, after 7 days) is 100%. The same molecule showed a chromatographic logP in data set [2] of 3.31. For `Cc1cc(C#N)cc(C(=O)NC(C)(C)C)c1NC(=O)c1cc(Cn2nnc3cc([N+](=O)[O-])ccc32)nn1-c1ncccc1Cl` [Example 115], the pest or weed control at 100 g/ha in data set [1] (100 g/ha, after 7 days) was found to be 100%. In data set [2], this molecule showed a chromatographic logP of 3.03. In the case of `Cc1cc(Cl)cc(C(=O)NC(C)C)c1NC(=O)c1cc(Cn2ccnn2)nn1-c1ncccc1Cl` [Example 116], the chromatographic logP in data set [2] was 2.12. Regarding `Cc1cc(F)cc(C(=O)NC(C)(C)C)c1NC(=O)c1cc(Cn2ncc(C(F)(F)F)n2)nn1-c1ncccc1Cl` [Example 171], the pest or weed control at 100 g/ha in data set [1] (100 g/ha, after 7 days) worked out at 100%. This molecule also gave a chromatographic logP in data set [2] of 4.02. Take `Cc1cc(Br)cc(C(=O)NC(C)C2CC2)c1NC(=O)c1cc(Cn2ncc(C(F)(F)F)n2)nn1-c1ncccc1Cl` (stereo not shown) [Example 173]: the chromatographic logP in data set [2] was 3.87.

Take `Cc1cc(C#N)cc(C(=O)NC2CC2)c1NC(=O)c1cc(Cn2cc(C(F)(F)F)nn2)nn1-c1ncccc1Cl` [Example 179]: the chromatographic logP in data set [2] stood at 2.5. Regarding `Cc1cc(Cl)cc(C(=O)NC2CC2)c1NC(=O)c1cc(Cn2cc(C(F)(F)F)nn2)nn1-c1ncccc1Cl` [Example 188], the chromatographic logP in data set [2] turned out to be 2.82. `Cc1cc(Cl)cc(C(=O)NC(C)(C)C)c1NC(=O)c1cc(Cn2cc(C(F)(F)F)nn2)nn1-c1ncccc1Cl` [Example 191]: the pest or weed control at 100 g/ha in data set [1] (100 g/ha, after 7 days) came to 100%. This molecule displayed a chromatographic logP in data set [2] of 3.44. Take `O=C(NC1CC1)c1cc(Cl)cc(Cl)c1NC(=O)c1cc(Cn2cc(C(F)(F)F)nn2)nn1-c1ncccc1Cl` [Example 199]: in data set [1] (100 g/ha, after 7 days), the pest or weed control at 100 g/ha is 100%. The same molecule showed a chromatographic logP in data set [2] of 2.89.

`CC(C)NC(=O)c1cc(Cl)cc(Cl)c1NC(=O)c1cc(Cn2cc(C(F)(F)F)nn2)nn1-c1ncccc1Cl` [Example 200]: the pest or weed control at 100 g/ha in data set [1] (100 g/ha, after 7 days) is 100%. The molecule further returned a chromatographic logP in data set [2] of 3.1.

Turning to `Cc1cc(C#N)cc(C(=O)NC(C)(C)C)c1NC(=O)c1cc(Cn2cc(C(F)(F)F)nn2)nn1-c1ccccc1Cl` [Example 292], the pest or weed control at 100 g/ha in data set [1] (100 g/ha, after 7 days) stood at 100%. Also, the chromatographic logP in data set [2] (setting [3]) stood at 3.48. In the case of `CCNC(=O)c1cc(C#N)cc(C)c1NC(=O)c1cc(Cn2cc(C(F)(F)C(F)(F)C(F)(F)F)nn2)nn1-c1ncccc1Cl` [Example 330], the chromatographic logP in data set [2] (setting [4]) is 3.24. For `Cc1cc(Cl)cc(C(=O)NC(C)(C)C)c1NC(=O)c1cc(Cn2ncc(C(F)(F)C(F)(F)C(F)(F)F)n2)nn1-c1ncccc1Cl` [Example 374], the pest or weed control at 100 g/ha in data set [1] worked out at 100%. The chromatographic logP in data set [2] (setting [4]) was determined as 4.65.
